Experimental findings from ChEMBL document CHEMBL1221242, “Design and synthesis of HCV agents with sequential triple inhibitory potentials” (2010) are described below.

In assay [1] the test system is Hepatitis C virus. The assay is described as follows: Inhibition of HCV 1b NS5B Cdelta21 polymerase expressed in Escherichia coli assessed as inhibition of [alpha-33P]GTP incorporation into RNA relative to HCV-796. On the set-up: species or system Hepatitis C virus subtype 1b.
Assay [2] has as its system Hepatitis C virus. Kind of assay: Antiviral activity against HCV infected in human BB7 cells assessed as inhibition of viral replication after 3 days relative to HCV-796. The format is functional, Hepacivirus hominis.
The next assay concerns Hepacivirus hominis. Kind of assay: Ratio of inhibition of HCV 1b NS5B Cdelta21 polymerase to inhibition of HCV relative to HCV-796.

With `CNC(=O)c1c(-c2ccc(F)cc2)oc2cc(N(CCOC(=O)CCC(=O)OC[C@H]3O[C@@H](n4cnc(C(N)=O)n4)[C@@H]4OC(C)(C)O[C@@H]43)S(C)(=O)=O)c(C3CC3)cc12`, the figures for the Ratio with Hepatitis C virus [1], in the assay on Hepatitis C virus [2] and in the assay with Hepacivirus hominis were 42, 13 and 0.31, respectively.

Regarding `CNC(=O)c1c(-c2ccc(F)cc2)oc2cc(N(CCOP(=O)(O)O)S(C)(=O)=O)c(C3CC3)cc12`, the Ratio with Hepatitis C virus [1] was found to be 0.4; in the assay with Hepatitis C virus [2], 8.9; in the assay with Hepacivirus hominis, 22.2.

As to `CNC(=O)c1c(-c2ccc(F)cc2)oc2cc(N(CCOP(=O)(O)OC[C@H]3O[C@@H](n4cnc(C(N)=O)n4)[C@@H]4OC(C)(C)O[C@@H]43)S(C)(=O)=O)c(C3CC3)cc12`, the Ratio was found to be 11.8 in the assay with Hepatitis C virus [1], 18.6 with Hepatitis C virus [2] and 1.57 in the assay on Hepacivirus hominis.

As for `CNC(=O)c1c(-c2ccc(F)cc2)oc2cc(N(CCOP(=O)(O)OC[C@H]3O[C@@H](n4cnc(C(N)=O)n4)[C@H](O)[C@@H]3O)S(C)(=O)=O)c(C3CC3)cc12`, the Ratio was found to be 6.2 in the assay on Hepatitis C virus [1], 7.3 in the assay with Hepatitis C virus [2] and 1.18 in the assay with Hepacivirus hominis.

Regarding `CNC(=O)c1c(-c2ccc(F)cc2)oc2cc(N(CCOC(=O)CCC(=O)OC[C@H]3O[C@@H](n4cnc(C(N)=O)n4)[C@H](O)[C@@H]3O)S(C)(=O)=O)c(C3CC3)cc12`, the figures for the Ratio with Hepatitis C virus [1], in the assay on Hepatitis C virus [2] and in the assay on Hepacivirus hominis were 22, 6.2 and 0.28, respectively.

In the case of `CNC(=O)c1c(-c2ccc(F)cc2)oc2cc(N(CCO)S(C)(=O)=O)c(C3CC3)cc12` [NESBUVIR], the Ratio with Hepatitis C virus [1], with Hepatitis C virus [2] and in the assay on Hepacivirus hominis was 1 in each case.
